Paper PMC3684613 (PLoS ONE, 2013)
Like-named read-outs stand apart in the source and are kept apart here.

Tests used:
P. falciparum 3D7 [1] = experiment: DAPI stain fluorescent high content imaging assay, P. falciparum 3D7 (confirmatory screen, Avery); conditions: Plasmodium falciparum; for EC50: 3D7, read-out: EC50_nM; for inhibition of growth at 5 µM: 3D7, read-out: percent_inh @ 5 uM; for inhibition of growth at 2 µM: 3D7, read-out: percent_inh @ 2 uM
P. falciparum 3D7 [2] = test system: P. falciparum 3D7; design: method as in ChEMBL-NTD; conditions: ref ChEMBL-NTD, cited from earlier work

| Structure (SMILES) | EC50 (P. falciparum 3D7 [1]) [nM] | also measured |
| --- | --- | --- |
| CCN(CC)CCn1c(=N)n(CC(O)c2ccc(Cl)c(Cl)c2)c2ccccc21 (stereo not shown) [MMV000248] | 718 | inhibition of growth at 5 µM (P. falciparum 3D7 [1]): 97% |
| CCOc1ccc(Nc2c3ccccc3nc3ccccc23)cc1 [MMV000304] | 1060 | EC50 (P. falciparum 3D7 [2]; source StJude (SJ ids)): 5720 nM; inhibition of growth at 5 µM (P. falciparum 3D7 [1]): 97% |
| Cc1ccc2nc(C)cc(Nc3cccc(C(F)(F)F)c3)c2c1 [MMV000326] | 1170 | EC50 (P. falciparum 3D7 [2]; source StJude (SJ ids)): 879 nM; inhibition of growth at 5 µM (P. falciparum 3D7 [1]): 98% |
| CCn1c2c(c(=N)c3c1CCC3)CCCC2 [MMV000340] | 694 | EC50 (P. falciparum 3D7 [2]; values follow the order of the source (GNF; GSK; StJude)): 3120 nM; inhibition of growth at 5 µM (P. falciparum 3D7 [1]): 77% |
| Oc1ccc(Br)cc1CN1CCN(Cc2cccc(F)c2)CC1 [MMV000356] | 1030 | EC50 (P. falciparum 3D7 [2]; original screening data, source (GSK, GNF, StJude), several values separated by ';' in order of sources): 1400 nM |
| CC(C)(C)c1ccc2c(c1)CN(Cc1ccc(Cl)cc1)CO2 [MMV000442] | 362 | EC50 (P. falciparum 3D7 [2]; source StJude (SJ ids)): 255 nM; inhibition of growth at 5 µM (P. falciparum 3D7 [1]): 98% |
| CCOc1ccc2c(c1)CN(Cc1ccc(Cl)cc1)CO2 [MMV000443] | 439 | EC50 (P. falciparum 3D7 [2]; source StJude (SJ ids)): 1490 nM; inhibition of growth at 5 µM (P. falciparum 3D7 [1]): 97% |
| CCCCCn1c(=N)n(CC(O)COc2cccc(C)c2)c2ccccc21 (stereo not shown) [MMV000444] | – | EC50 (P. falciparum 3D7 [2]; source StJude (SJ ids)): 2650 nM; inhibition of growth at 5 µM (P. falciparum 3D7 [1]): 96% |
| CCCCCCn1c(=N)n(CC(O)COc2cccc(C)c2)c2ccccc21 (stereo not shown) [MMV000445] | 1140 | EC50 (P. falciparum 3D7 [2]; source StJude (SJ ids)): 1970 nM; inhibition of growth at 5 µM (P. falciparum 3D7 [1]): 98% |
| CCOc1cc2c(cc1OCC)C(c1cc(Cl)ccc1O)NCC2 (stereo not shown) [MMV000478] | 746 | inhibition of growth at 5 µM (P. falciparum 3D7 [1]): 98% |
| CCOC(=O)c1cnc2ccc(OC)cc2c1Nc1ccc(N2CCN(C)CC2)cc1 [MMV000704] | 1100 | – |
| Oc1ccc(-c2nc(-c3ccc4oc5ccc(-c6[nH]c(-c7ccc(O)cc7)nc6-c6ccccc6)cc5c4c3)c(-c3ccccc3)[nH]2)cc1 [MMV000753] | 326 | inhibition of growth at 5 µM (P. falciparum 3D7 [1]): 98% |
| COc1ccc(Nc2nc(NCc3ccccc3)c3ccccc3n2)cc1 [MMV000963] | 589 | – |
| CN1CCN(c2nc(Nc3ccc(O)cc3)nc3ccccc23)CC1 [MMV000986] | 1430 | – |
| COc1cc2cc(C(=O)Nc3ccccc3)c(N)nc2cc1OC [MMV006767] | – | inhibition of growth at 5 µM (P. falciparum 3D7 [1]): 99% |
| COc1ccccc1N1C(=N)SC(=Cc2ccc(OCc3ccccc3F)cc2)C1=O [MMV007199] | 478 | inhibition of growth at 5 µM (P. falciparum 3D7 [1]): 95% |
| Brc1ccc(Nc2nc3ccccc3nc2Nc2ccc(Br)cc2)cc1 [MMV007224] | 1060 | inhibition of growth at 5 µM (P. falciparum 3D7 [1]): 98% |
| COc1ccc2nc(C)cc(Nc3ccc(Cl)cc3)c2c1 [MMV007875] | 2000 | inhibition of growth at 2 µM (P. falciparum 3D7 [1]): 95% |
| O=c1nc(C=Cc2ccc(Cl)cc2)oc2ccccc12 [MMV007977] | 995 | inhibition of growth at 5 µM (P. falciparum 3D7 [1]): 76% |
| Cc1cc(C)cc(Nc2cc(C)nc3nc(C(F)(F)F)nn23)c1 [MMV011259] | 85.7 | – |
| Cc1ccc(Nc2nc(N)c3ccccc3n2)cc1Cl [MMV011522] | 4000 | inhibition of growth at 2 µM (P. falciparum 3D7 [1]): 96% |
| Oc1ccccc1CN1CCN(C(c2ccccc2)c2ccccc2)CC1 [MMV011795] | 611 | inhibition of growth at 5 µM (P. falciparum 3D7 [1]): 97% |
| CCOc1ccc(C2N(C)c3ccccc3N2C)cc1 [MMV075490] | 941 | inhibition of growth at 5 µM (P. falciparum 3D7 [1]): 72% |

| Structure (SMILES) | EC50 (P. falciparum 3D7 [1]) [nM] | also measured |
| --- | --- | --- |
| Nc1nc(Nc2cccc(F)c2)nc2ccccc12 [MMV080034] | 1000 | – |
| COc1ccc(C=C2SC(Nc3ccc(F)cc3)=NC2=O)c(OC)c1 [MMV084434] | 591 | inhibition of growth at 5 µM (P. falciparum 3D7 [1]): 92% |
| COc1ccc2nc(C)cc(Nc3ccccc3O)c2c1 [MMV274073] | 686 | – |
| CCn1nc(-c2ccc(C(=O)OC)cc2)nc2c(=O)n(C)c(=O)nc1-2 [MMV306025] | 693 | – |
| COc1ccc(-c2nc(N3CCN(C(=O)C4CCCCC4)CC3)c3c4c(sc3n2)CCCC4)cc1 [MMV396594] | 1060 | – |
| CCOc1ccccc1CN1CCc2nc3cc(C(C)(C)C)nn3c(O)c2C1 [MMV396595] | 1010 | – |
| CCOc1c(Cl)cc(CNCC(O)c2ccccc2)cc1OC (stereo not shown) [MMV396632] | 1050 | – |
| CCOc1cc(CNC(C)C(O)c2ccccc2)cc(Cl)c1OCC (stereo not shown) [MMV396633] | 1240 | – |
| O=C(NC1CCN(Cc2ccccc2)CC1)c1cc2nc(-c3ccc(Cl)s3)cc(C(F)(F)F)n2n1 [MMV396635] | 959 | – |
| Cc1sc(NC(=O)c2ccccc2)c(C(c2cccs2)N2CCN(c3ccccc3)CC2)c1C (stereo not shown) [MMV396652] | 1180 | – |
| Cc1sc(NC(=O)c2ccco2)c(C(c2cccnc2)N2CCC(Cc3ccccc3)CC2)c1C (stereo not shown) [MMV396663] | 1020 | – |
| CCOC(=O)c1c(C)n(-c2ccccc2)c2ccc(OC(=O)c3cc(OC)c(OC)c(OC)c3)cc12 [MMV396664] | 615 | – |
| COc1cc(C(=O)Nc2nc3c(cc4c5c(cccc53)CC4)s2)cc(OC)c1OC [MMV396665] | 898 | – |
| Cc1cc(N2CCCC2)nc(Nc2ccc(NC(=O)CCc3ccccc3)cc2)n1 [MMV396669] | 1070 | – |
| O=C(NCC(c1ccsc1)N1CCCCCC1)c1ccc(C(F)(F)F)cc1 (stereo not shown) [MMV396672] | 433 | – |
| O=C(CSc1nccn2nc(-c3ccccc3)cc12)Nc1cc(C(F)(F)F)ccc1Cl [MMV396678] | 218 | – |
| COc1ccc(-c2cc3c(SCC(=O)Nc4cc(C(F)(F)F)ccc4Cl)nccn3n2)cc1 [MMV396679] | 89.9 | – |
| Cc1ccc(-c2cc3c(SCC(=O)Nc4cc(C(F)(F)F)ccc4Cl)nccn3n2)cc1 [MMV396680] | 92.8 | – |
| Cc1cc(NC(=O)c2cccc(C(F)(F)F)c2)n(-c2nc(-c3ccc4c(c3)OCO4)cs2)n1 [MMV396681] | 959 | – |
| C[n+]1c2ccccc2nc2ccc(NCCO)cc21 [MMV396693] | 296 | – |
| CCN(CC)CCNc1ncnc2c1[nH]c1ccc(Cl)cc12 [MMV396703] | 406 | – |
| CN1CCN(c2ncnc3c2[nH]c2ccc(Cl)cc23)CC1 [MMV396704] | 1190 | – |
| COc1cccc(Cn2c(Oc3ccccc3)nc3c2c(=O)n(C)c(=O)n3C)c1 [MMV396705] | 1390 | – |

| Structure (SMILES) | EC50 (P. falciparum 3D7 [1]) [nM] | also measured |
| --- | --- | --- |
| CC1(c2ccccc2)Nc2ccccc2-c2nc3ccccc3n21 (stereo not shown) [MMV396715] | 1730 | – |
| COc1ccc(CCN2C(=O)c3[nH]nc(-c4cc(Cl)c(C)cc4O)c3C2c2ccccc2F)cc1 (stereo not shown) [MMV396717] | 916 | – |
| COc1cccc(C2(C)Nc3ccccc3-c3nc4ccccc4n32)c1 (stereo not shown) [MMV396719] | 1150 | – |
| N=c1n(CCN2CCCCC2)c2ccccc2n1CC(=O)c1ccc(Cl)c(Cl)c1 [MMV396723] | 1240 | – |
| N#Cc1nc(Cc2cccc3ccccc23)oc1N1CCN(C(c2ccccc2)c2ccccc2)CC1 [MMV396726] | 1160 | – |
| OC(CNCC1CCCO1)Cn1c2ccc(Cl)cc2c2cc(Cl)ccc21 (stereo not shown) [MMV396736] | 1060 | – |
| CC(C)CNC(=O)c1c(N)n(CCc2ccccc2F)c2nc3ccccc3nc12 [MMV396744] | 832 | – |
| COc1ccc2c(c1)C1(Nc3ccccc3-c3nc4ccccc4n31)C(=O)N2 (stereo not shown) [MMV396749] | 928 | – |
| O=C(NNc1cc(N2CCCC2)nc(N2CCCC2)n1)c1ccccc1 [MMV396770] | 1330 | – |
| CC(C)(C)CC(C)(C)NCC(O)COc1ccc(Cl)cc1Cl (stereo not shown) [MMV396794] | 1160 | – |
| COc1ccc(-c2c(C)nn3c(N)c(C#N)cnc23)cc1OC [MMV396797] | 477 | – |
| Cc1cccc(-n2ncc3c(=O)[nH]c(-n4nc(C)cc4NC(=O)c4cc5ccccc5o4)nc32)c1 [MMV403679] | 929 | – |
| Nc1ccn([C@@H]2O[C@H](CO)[C@@H](O)[C@H]2O)c(=O)n1 [MMV638723] | 385 | – |
| O=C1C2=C(Nc3ccccc3SC2c2ccccc2)c2ccccc21 (stereo not shown) [MMV645672] | 890 | – |
| O=C(Nc1cccc(C2=NCCN2)c1)Nc1cccc(C2=NCCN2)c1 [MMV665810] | 1010 | inhibition of growth at 5 µM (P. falciparum 3D7 [1]): 83% |
| Oc1c(C(Nc2ccccn2)c2cccc(Oc3ccccc3)c2)ccc2cccnc12 (stereo not shown) [MMV665814] | 1010 | inhibition of growth at 5 µM (P. falciparum 3D7 [1]): 97% |
| COc1ccc(C=C2SC(Nc3ccccc3)=NC2=O)cc1 [MMV665836] | 551 | inhibition of growth at 5 µM (P. falciparum 3D7 [1]): 71% |
| CCOc1ccc(N2C(N)=NC(N)=NC2(C)C)cc1 [MMV667486] | – | inhibition of growth at 2 µM (P. falciparum 3D7 [1]): 92% |
| CN(C)c1ccc(N2C(N)=NC(N)=NC2(C)C)cc1 [MMV667487] | – | inhibition of growth at 2 µM (P. falciparum 3D7 [1]): 95% |
| COC(=O)c1ccc(Cl)c2c1C1C=CCC1C(c1cccc3ccccc13)N2 (stereo not shown) [MMV667489] | 939 | – |
| COc1ccc(C2c3ccc4ccccc4c3Oc3ncn(CCCn4ccnc4)c(=N)c32)cc1OC (stereo not shown) [MMV667490] | 1790 | – |
| COc1ccc(C2c3ccc4ccccc4c3Oc3ncn(CCCN(C)C)c(=N)c32)cc1 (stereo not shown) [MMV667491] | 1230 | – |
| CN(N=O)C1=C(NC2CCCCC2)C(=O)c2ccccc2C1=O [MMV667492] | 1190 | – |
